From publication PMC5447808 (Pulmonary pharmacology & therapeutics, 2017) come the findings set out here.

Assay [1] addresses T1, KAT8 (lysine acetyltransferase 8) (Homo sapiens, UniProt Q9H7Z6).
T1 sequence (Q9H7Z6 2-458): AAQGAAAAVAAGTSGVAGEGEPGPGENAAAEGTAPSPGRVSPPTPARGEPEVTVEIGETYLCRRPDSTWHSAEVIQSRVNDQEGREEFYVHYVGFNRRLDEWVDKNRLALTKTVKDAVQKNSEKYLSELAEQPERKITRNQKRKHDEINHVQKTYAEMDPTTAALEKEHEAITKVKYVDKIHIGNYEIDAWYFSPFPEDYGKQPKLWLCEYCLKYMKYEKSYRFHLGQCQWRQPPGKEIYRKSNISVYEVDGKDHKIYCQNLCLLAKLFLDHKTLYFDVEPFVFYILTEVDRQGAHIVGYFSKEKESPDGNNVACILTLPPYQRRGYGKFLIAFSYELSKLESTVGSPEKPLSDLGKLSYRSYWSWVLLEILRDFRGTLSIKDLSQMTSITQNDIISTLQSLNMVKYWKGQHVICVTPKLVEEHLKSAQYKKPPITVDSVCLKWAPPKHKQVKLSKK
Kind of assay: enzyme kinetics of KAT8 HAT activity, fluorescent detection of CoASH. In kind it is biochemical.

The target in assay [2] is T1, KAT8 (lysine acetyltransferase 8). Kind of assay: enzyme kinetics, Km app. for Ac-CoA without inhibitor. It counts as biochemical. The settings on record: read-out: Ac-CoA / Km app.

For the molecule `CCCCCCCc1ccc(CCc2cccc(O)c2C(=O)O)cc1` [MG149], the Ki in assay [1] is 39 ± 7.7 µM.

Regarding `CC(=O)SCCNC(=O)CCNC(=O)[C@H](O)C(C)(C)COP(=O)(O)OP(=O)(O)OC[C@H]1O[C@@H](n2cnc3c(N)ncnc32)[C@H](O)[C@@H]1OP(=O)(O)O` [Ac-CoA], in assay [2], the Km worked out at 4.1 ± 1.1 µM.
